US9783537B2, “3-(4-ethylnylphenyl) pyridopyrimidinone compounds and process for preparation thereof useful as potential anticancer agents” (Council of Scientific & Industrial Research, priority 2013, dated 2017)
Read-outs that look alike come from different tables or passages of the source.

Assays:
HOP-62 = assay: SRB 48 h growth assay, Non-small Cell Lung HOP-62; type: cell-based, human; details: HOP-62, Non-small Cell Lung
MCF7 = assay: SRB 48 h growth assay, Breast MCF7; type: cell-based, human
UACC-62 = assay: SRB 48 h growth assay, Melanoma UACC-62; type: cell-based, human; details: UACC-62, Melanoma
OVCAR-4 = assay: SRB 48 h growth assay, Ovarian OVCAR-4; type: cell-based, human; details: OVCAR-4, Ovarian
NCI-H522 = assay: SRB 48 h growth assay, Non-small Cell Lung NCI-H522; type: cell-based, human
MDA-MB-231/ATCC = assay: SRB 48 h growth assay, Breast MDA-MB-231/ATCC; type: cell-based, human
MDA-MB-435 = assay: SRB 48 h growth assay, Melanoma MDA-MB-435; type: cell-based, human; details: MDA-MB-435, Melanoma
A549/ATCC = assay: SRB 48 h growth assay, Non-small Cell Lung A549/ATCC; type: cell-based, human
786-0 = assay: SRB 48 h growth assay, Renal 786-0; type: cell-based, human; details: 786-0, Renal
NCI-H23 = assay: SRB 48 h growth assay, Non-small Cell Lung NCI-H23; type: cell-based, human
CCRF-CEM = assay: SRB 48 h growth assay, Leukemia CCRF-CEM; type: cell-based, human
PC-3 = assay: SRB 48 h growth assay, Prostate PC-3; type: cell-based, human; details: PC-3, Prostate
BT-549 = assay: SRB 48 h growth assay, Breast BT-549; type: cell-based, human; details: BT-549, Breast
[1] = system: two prostate cancer cell line (PC-3, DU-145); assay: in vitro anticancer activity, prostate panel; type: cell-based; details: Homo sapiens; two prostate cancer cell lines, exposure at least 48 h; read-out: GI50, range over panel
[2] = system: seven colon cancer cell line (COLO 205, HCC-2998, HCT-116, HCT-15, HT29, KM12 and SW-620); assay: in vitro anticancer activity, colon panel; type: cell-based; details: Homo sapiens; seven colon cancer cell lines, exposure at least 48 h; read-out: GI50, range over panel
M14 = assay: SRB 48 h growth assay, Melanoma M14; type: cell-based, human
K-562 = assay: SRB 48 h growth assay, Leukemia K-562; type: cell-based, human
RXF393 = assay: SRB 48 h growth assay, Renal RXF393; type: cell-based, human
[3] = system: six CNS cancer cell line (SF-268, SF-295, SF-539, SNB-19, SNB-75 and U251); assay: in vitro anticancer activity, CNS panel; type: cell-based; details: Homo sapiens; six CNS cancer cell lines, exposure at least 48 h; read-out: GI50, range over panel
[4] = system: seven ovarian cancer cell lines (IGROV1, OVCAR-3, OVCAR-4, OVCAR-5, OVCAR-8, NCI/ADR-RES and SK-OV-3); assay: in vitro anticancer activity, ovarian panel; type: cell-based; details: Homo sapiens, exposure at least 48 h, read-out: GI50, range over panel
[5] = system: six breast cancer cell line (MCF-7, MDA-MB-231/ATCC, HS 578T, TD-47D, MDA-MB-468 and BT-549); assay: in vitro anticancer activity, breast panel; type: cell-based; details: Homo sapiens; six breast cancer cell lines, exposure at least 48 h; read-out: GI50, range over panel
RPMI-8226 = assay: SRB 48 h growth assay, Leukemia RPMI-8226; type: cell-based, human; details: RPMI-8226, Leukemia
DU-145 = assay: SRB 48 h growth assay, Prostate DU-145; type: cell-based, human; details: DU-145, Prostate
ACHN = assay: SRB 48 h growth assay, Renal ACHN; type: cell-based, human
TK-10 = assay: SRB 48 h growth assay, Renal TK-10; type: cell-based, human; details: TK-10, Renal
HS578T = assay: SRB 48 h growth assay, Breast HS578T; type: cell-based, human
[6] = Homo sapiens, read-out: Growth Inhibition GI50
[7] = Homo sapiens, read-out: Log10 GI50 (converted)
[8] = Homo sapiens, read-out: Log10 LC50 (converted)

Structure (SMILES): C#Cc1ccc(-n2c(/C=C/c3ccc(O)cc3)nc3ncccc3c2=O)cc1 [4b, (E)-3-(4-Ethynylphenyl)-2-(4-hydroxystyryl)pyrido[2,3-d]pyrimidin-4(3H)-one]
- Log10 TGI50 (HOP-62): −4.25
- GI50 (HOP-62; [6]): 5.66 µM
- GI50 (HOP-62; [7]): 5.62 µM
- CC50 (HOP-62; [8]): > 100 µM
- Log10 TGI50 (MCF7): >−4.00
- GI50 (MCF7; [6]): 3.04 µM
- GI50 (MCF7; [7]): 3.02 µM
- CC50 (MCF7; [8]): > 100 µM
- GI50 (UACC-62; [6]): 4.01 µM
- GI50 (UACC-62; [7]): 3.98 µM
- CC50 (UACC-62; [8]): > 100 µM
- Log10 TGI50 (UACC-62): >−4.00
- GI50 (OVCAR-4; [6]): 22.8 µM
- GI50 (OVCAR-4; [7]): 1.58 µM
- CC50 (OVCAR-4; [8]): > 100 µM
- Log10 TGI50 (OVCAR-4): >−4.00
- Log10 TGI50 (NCI-H522): −5.22
- GI50 (NCI-H522; [6]): 2 µM
- GI50 (NCI-H522; [7]): 2 µM
- CC50 (NCI-H522; [8]): > 100 µM
- Log10 TGI50 (MDA-MB-231/ATCC): >−4.00
- GI50 (MDA-MB-231/ATCC; [6]): 11.4 µM
- GI50 (MDA-MB-231/ATCC; [7]): 11.5 µM
- CC50 (MDA-MB-231/ATCC; [8]): > 100 µM
- GI50 (MDA-MB-435; [6]): 1.6 µM
- GI50 (MDA-MB-435; [7]): 1.58 µM
- CC50 (MDA-MB-435; [8]): > 100 µM
- Log10 TGI50 (MDA-MB-435): −5.39
- Log10 TGI50 (A549/ATCC): >−4.00
- GI50 (A549/ATCC; [6]): 4.74 µM
- GI50 (A549/ATCC; [7]): 4.79 µM
- CC50 (A549/ATCC; [8]): > 100 µM
- Log10 TGI50 (786-0): >−4.30
- GI50 (786-0; [6]): 4.88 µM
- GI50 (786-0; [7]): 4.9 µM
- CC50 (786-0; [8]): > 100 µM
- Log10 TGI50 (NCI-H23): >−4.00
- GI50 (NCI-H23; [6]): 5.52 µM
- GI50 (NCI-H23; [7]): 5.5 µM
- LC50 (NCI-H23; [8]): > 100 µM
- Log10 TGI50 (CCRF-CEM): >−4.00
- CC50 (CCRF-CEM; Homo sapiens, CCKF-CEM, read-out: Log10 LC50 (converted)): > 100 µM
- GI50 (CCRF-CEM; [6]): 3.3 µM
- GI50 (CCRF-CEM; [7]): 3.31 µM
- GI50 (PC-3; [6]): 3.87 µM
- GI50 (PC-3; [7]): 3.89 µM
- CC50 (PC-3; [8]): > 100 µM
- Log10 TGI50 (PC-3): −4.32
- Log10 TGI50 (BT-549): −4.06
- GI50 (BT-549; [6]): 7.51 µM
- GI50 (BT-549; [7]): 7.59 µM
- CC50 (BT-549; [8]): > 100 µM
- GI50 [1]: 3.96 to 5.36 µM
- GI50 [2]: 3.19 to 27.5 µM
- Log10 TGI50 (M14): −5.09
- GI50 (M14; [6]): 2.7 µM
- GI50 (M14; [7]): 2.69 µM
- CC50 (M14; [8]): > 100 µM
- GI50 (K-562; Homo sapiens, K562, K-562, Leukemia, read-out: Growth Inhibition GI50): 4.33 µM
- GI50 (K-562; Homo sapiens, K562, K-562, Leukemia, read-out: Log10 GI50 (converted)): 4.37 µM
- CC50 (K-562; Homo sapiens, K562, K-562, Leukemia, read-out: Log10 LC50 (converted)): > 100 µM
- Log10 TGI50 (K-562; K-562, Leukemia): >−4.00
- Log10 TGI50 (RXF393): −5.36
- GI50 (RXF393; Homo sapiens, RXF 393, read-out: Growth Inhibition GI50): 1.48 µM
- GI50 (RXF393; Homo sapiens, RXF 393, read-out: Log10 GI50 (converted)): 1.48 µM
- CC50 (RXF393; Homo sapiens, RXF 393, read-out: Log10 LC50 (converted)): > 72.4 µM
- GI50 [3]: 3.88 to 16.2 µM
- GI50 [4]: 2.33 to 9.67 µM
- GI50 [5]: 2.83 to 5.85 µM
- GI50 (RPMI-8226; [6]): 3.41 µM
- GI50 (RPMI-8226; [7]): 3.39 µM
- CC50 (RPMI-8226; [8]): > 100 µM
- Log10 TGI50 (RPMI-8226): >−4.00
- Log10 TGI50 (DU-145): −4.12
- GI50 (DU-145; [6]): 4.1 µM
- GI50 (DU-145; [7]): 4.07 µM
- CC50 (DU-145; [8]): > 100 µM
- Log10 TGI50 (ACHN): >−4.00
- GI50 (ACHN; [6]): 6.31 µM
- GI50 (ACHN; [7]): 6.31 µM
- CC50 (ACHN; [8]): > 100 µM
- GI50 (TK-10; [6]): 8.78 µM
- GI50 (TK-10; [7]): 8.71 µM
- CC50 (TK-10; [8]): > 100 µM
- Log10 TGI50 (TK-10): −4.16
- Log10 TGI50 (HS578T): −4.52
- GI50 (HS578T; Homo sapiens, Hs-578T, read-out: Growth Inhibition GI50): 3.24 µM
- GI50 (HS578T; Homo sapiens, Hs-578T, read-out: Log10 GI50 (converted)): 3.24 µM
- CC50 (HS578T; Homo sapiens, Hs-578T, read-out: Log10 LC50 (converted)): > 100 µM
